Results reported in patent US20240316017A1, “NOVEL PYRIDINE DERIVATIVE COMPOUND AS RON INHIBITOR” (LG CHEM, LTD., priority 2021, published 2024).

Columns and labels:
cMET = cMET (Homo sapiens, UniProt P08581); test: Evaluation of inhibitory activity against MET (TR-FRET kinase assay); assay type: biochemical; conditions: cMET protein, TK peptide substrate
Description: In addition, in order to measure the enzyme activity inhibition for cMET, the evaluation was performed in the same manner as the enzyme activity inhibition measurement experiment for RON.
(§1) Specifically, the compound was prepared to a concentration of 1 mM in 100% DMSO and was diluted 10 times in a stepwise manner through 3-fold dilution. The compound (2 ul) diluted in a stepwise manner was added to a 96-well-plate containing 48 ul of a 1× kinase reaction buffer (50 mM HEPES (pH 7.4), 0.05% BSA, 0.005% Tween-20, 1 mM DTT, 0.5 mM MnCl2, 20 mM MgCl2).
The cMET protein was diluted to a concentration of 263 nM in a cMET storage buffer (50 mM Tris-HCl (pH 7.5), 150 mM NaCl, 0.05% Brij35, 1 mM DTT, 10% Glycerol), and then diluted again to a concentration of 2 nM in a 1× kinase reaction buffer. As a substrate cocktail, a MET-specific substrate mixed solution (5 uM TK peptide, 10 mM ATP) was prepared at a concentration 2 times the final reaction concentration.
(§2) Thereafter, a 384-well-plate was prepared, and 2.5 μl of each of the diluted compounds of Examples was added to a corresponding well of experimental group wells, and 2.5 μl of a 4% DMSO solution was dispensed into high control wells and low control wells.
(§3) Thereafter, 2.5 μL of 2 nM cMET was dispensed into each of the high control wells and the experimental group wells, and 2.5 μL of the 1×kinase reaction buffer was added to the low control wells, and all the wells were centrifuged at room temperature for 40 seconds at 1,000 RPM, and then incubated at room temperature for 20-30 minutes. Then, 5 uL of the substrate cocktail (2×) was dispensed into each well, and all the wells were centrifuged at room temperature for 40 seconds at 1,000 RPM, and then incubated at room temperature for 60 minutes. Thereafter, 5 uL of 90 mM EDTA was added to each well to terminate the reaction, and all the wells were then incubated again at room temperature for 5 minutes. Thereafter, 5 uL of a 4× phosphotyrosine antibody (Perkin Elmer) containing europium was added to each well, and all the wells were then incubated at room temperature for 60 minutes. After the incubation, the 384-well-plate was read with the Vison plate reader. In this case, the excitation wavelength was 340 nm, and the emission wavelength was 620 nm and 665 nm. The IC50 value of each compound of Examples was derived using the GraphPd Prism7 program.

RON = RON (Homo sapiens, UniProt Q04912); test: Evaluation of inhibitory activity against RON (TR-FRET kinase assay); assay type: biochemical; conditions: RON protein, ULight-labeled Poly GT substrate
Description: In order to measure the inhibitory activity of each of the compounds of Examples against RON, the IC50 of each of the compounds was measured using Time-resolved fluorescence energy transfer (TR-FRET).
as §1, with “7.4), 0.01%” for “7.4), 0.05% BSA, 0.005%”, “Tween-20, 5” for “Tween-20, 1”, “mM Na3VO4, 2 mM EGTA, 10” for “mM MnCl2, 20”
The RON protein was diluted to a concentration of 49.3 nM in a RON storage buffer (50 mM Tris-HCl (pH 7.5), 150 mM NaCl, 0.5 mM EDTA, 0.02% Triton X-100), and then diluted again to a concentration of 0.4 nM in a 1×kinase reaction buffer. As a substrate cocktail, a RON-specific substrate mixed solution (40 uM ULight-labeled Poly GT, 100 nM ATP) was prepared at a concentration 2 times the final reaction concentration.
as §2
as §3, with “of 0.4” for “of 2”, “nM RON” for “nM cMET”, “the 1× kinase” for “the 1×kinase”, “of 30” for “of 90”

Chain of cMET (P08581 25-1390): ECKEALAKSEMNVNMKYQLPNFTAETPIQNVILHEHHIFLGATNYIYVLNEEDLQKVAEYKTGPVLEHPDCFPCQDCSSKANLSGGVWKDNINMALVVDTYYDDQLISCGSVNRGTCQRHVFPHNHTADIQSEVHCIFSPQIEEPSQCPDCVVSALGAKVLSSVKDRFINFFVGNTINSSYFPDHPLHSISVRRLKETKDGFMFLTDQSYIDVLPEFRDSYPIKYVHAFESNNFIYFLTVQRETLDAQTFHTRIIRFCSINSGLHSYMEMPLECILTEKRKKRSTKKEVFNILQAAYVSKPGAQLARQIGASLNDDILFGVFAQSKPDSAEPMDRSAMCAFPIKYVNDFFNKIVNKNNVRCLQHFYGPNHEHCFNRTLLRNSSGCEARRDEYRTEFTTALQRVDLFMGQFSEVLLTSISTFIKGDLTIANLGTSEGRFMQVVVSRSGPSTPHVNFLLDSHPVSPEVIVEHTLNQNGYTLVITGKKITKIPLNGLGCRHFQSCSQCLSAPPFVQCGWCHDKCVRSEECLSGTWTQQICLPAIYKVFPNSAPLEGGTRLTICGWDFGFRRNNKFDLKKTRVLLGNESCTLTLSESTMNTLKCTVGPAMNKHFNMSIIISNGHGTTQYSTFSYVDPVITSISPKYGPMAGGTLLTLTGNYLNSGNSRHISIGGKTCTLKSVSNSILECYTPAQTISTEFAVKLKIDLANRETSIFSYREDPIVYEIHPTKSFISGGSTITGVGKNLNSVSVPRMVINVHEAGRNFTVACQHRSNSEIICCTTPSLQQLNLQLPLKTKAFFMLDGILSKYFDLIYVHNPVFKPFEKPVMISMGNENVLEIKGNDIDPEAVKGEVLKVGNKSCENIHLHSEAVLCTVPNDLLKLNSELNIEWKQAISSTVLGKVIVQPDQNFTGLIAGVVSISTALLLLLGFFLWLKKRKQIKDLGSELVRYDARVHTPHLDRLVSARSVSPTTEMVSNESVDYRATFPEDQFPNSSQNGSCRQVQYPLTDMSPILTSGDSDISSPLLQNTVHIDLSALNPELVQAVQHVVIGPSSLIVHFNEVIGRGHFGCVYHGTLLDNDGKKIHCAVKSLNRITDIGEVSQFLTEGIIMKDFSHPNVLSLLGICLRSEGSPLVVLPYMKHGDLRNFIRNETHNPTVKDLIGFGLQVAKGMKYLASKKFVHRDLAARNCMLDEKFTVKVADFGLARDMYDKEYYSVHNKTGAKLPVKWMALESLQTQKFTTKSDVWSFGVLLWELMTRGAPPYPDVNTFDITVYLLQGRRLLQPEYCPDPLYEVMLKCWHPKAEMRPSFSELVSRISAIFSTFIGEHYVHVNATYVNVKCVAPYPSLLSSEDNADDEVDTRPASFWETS
Chain of RON (Q04912 25-1400, species assumed): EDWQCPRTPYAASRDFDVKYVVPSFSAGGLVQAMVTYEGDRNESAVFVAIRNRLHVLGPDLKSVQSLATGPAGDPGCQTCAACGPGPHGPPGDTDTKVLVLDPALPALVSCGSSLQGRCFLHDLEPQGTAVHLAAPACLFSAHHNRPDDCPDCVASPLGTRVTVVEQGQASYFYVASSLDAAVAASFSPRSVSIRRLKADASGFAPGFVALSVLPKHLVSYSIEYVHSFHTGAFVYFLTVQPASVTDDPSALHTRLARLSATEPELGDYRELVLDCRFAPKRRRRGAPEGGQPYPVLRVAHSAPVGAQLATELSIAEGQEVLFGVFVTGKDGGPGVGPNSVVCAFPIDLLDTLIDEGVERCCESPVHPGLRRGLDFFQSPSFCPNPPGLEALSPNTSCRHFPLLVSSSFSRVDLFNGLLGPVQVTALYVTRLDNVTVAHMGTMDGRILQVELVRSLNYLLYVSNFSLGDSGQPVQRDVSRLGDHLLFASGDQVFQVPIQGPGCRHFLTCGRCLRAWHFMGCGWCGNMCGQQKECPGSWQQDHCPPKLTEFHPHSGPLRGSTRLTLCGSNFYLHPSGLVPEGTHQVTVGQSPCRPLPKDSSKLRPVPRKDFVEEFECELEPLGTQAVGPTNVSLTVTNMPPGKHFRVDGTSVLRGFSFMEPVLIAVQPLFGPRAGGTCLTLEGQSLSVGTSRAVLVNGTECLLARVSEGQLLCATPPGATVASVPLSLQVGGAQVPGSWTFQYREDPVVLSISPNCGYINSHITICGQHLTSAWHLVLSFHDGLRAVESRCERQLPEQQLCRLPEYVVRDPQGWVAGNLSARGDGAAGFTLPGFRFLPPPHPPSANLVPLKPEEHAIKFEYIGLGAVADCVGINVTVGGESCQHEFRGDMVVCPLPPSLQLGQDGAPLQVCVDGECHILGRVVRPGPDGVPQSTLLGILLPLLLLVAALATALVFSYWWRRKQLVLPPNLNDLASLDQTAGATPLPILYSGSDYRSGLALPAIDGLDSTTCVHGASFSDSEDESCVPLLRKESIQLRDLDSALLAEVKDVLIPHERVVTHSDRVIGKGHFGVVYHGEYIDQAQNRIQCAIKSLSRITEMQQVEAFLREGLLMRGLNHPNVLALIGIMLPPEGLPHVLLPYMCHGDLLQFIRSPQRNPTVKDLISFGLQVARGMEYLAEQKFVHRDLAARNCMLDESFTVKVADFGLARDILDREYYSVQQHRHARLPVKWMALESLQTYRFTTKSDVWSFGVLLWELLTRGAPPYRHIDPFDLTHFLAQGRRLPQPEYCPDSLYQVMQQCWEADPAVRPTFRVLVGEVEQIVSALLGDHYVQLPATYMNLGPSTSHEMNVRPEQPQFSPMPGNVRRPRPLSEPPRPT

Compound	IC50 (cMET) [nM]	IC50 (RON) [nM]
CCOC(=O)Nc1c(Oc2ccc(NC(=O)c3cnn(-c4ccccc4)c3C(F)(F)F)cc2F)ccnc1N [Example 34, Ethyl(2-amino-4-(2-fluoro-4-(1-phenyl-5-(trifluoromethyl)-1H-pyrazole-4-carboxamido)phenoxy)pyridin-3-yl)carbamate]	> 5000	50 to 500
Cn1ncc(C(=O)Nc2ccc(Oc3ccnc(N)c3Cl)c(F)c2)c1C(F)F [Example 9, N-(4-((2-amino-3-chloropyridin-4-yl)oxy)-3-fluorophenyl)-5-(difluoromethyl)-1-methyl-1H-pyrazole-4-carboxamide]	> 5000	500 to 5000
Cc1c(C(=O)Nc2ccc(Oc3ncnc(N)c3Cl)c(F)c2)nnn1-c1ccccc1 [Example 55, N-[4-(6-amino-5-chloro-pyrimidin-4-yl)oxy-3-fluorophenyl]-5-methyl-1-phenyl-triazole-4-carboxamide]	> 5000	> 5000
Cc1nc(-c2ccccc2)sc1C(=O)Nc1ccc(Oc2ncnc(N)c2Cl)c(F)c1 [Example 61, N-[4-(6-amino-5-chloro-pyrimidin-4-yl)oxy-3-fluorophenyl]-4-methyl-2-phenyl-thiazole-5-carboxamide]	> 5000	500 to 5000
Nc1ncnc(Oc2ccc(NC(=O)c3ncn(-c4ccccc4)c3C(F)(F)F)cc2F)c1Cl [Example 63, N-[4-(6-amino-5-chloro-pyrimidin-4-yl)oxy-3-fluorophenyl]-1-phenyl-5-(trifluoromethyl)imidazole-4-carboxamide]	> 5000	50 to 500
Nc1nccc(Oc2ccc(NC(=O)c3cnn(-c4ccccc4)c3F)cc2F)c1Cl [Example 20, N-(4-((2-amino-3-chloropyridin-4-yl)oxy)-3-fluorophenyl)-5-fluoro-1-phenyl-1H-pyrazole-4-carboxamide]	> 5000	50 to 500
Cc1c(C(=O)Nc2ccc(Oc3ccnc(N)c3Cl)c(F)c2)nnn1-c1ccccc1 [Example 41, N-(4-((2-amino-3-chloropyridin-4-yl)oxy)-3-fluorophenyl)-5-methyl-1-phenyl-1H-1,2,3-triazole-4-carboxamide]	> 5000	50 to 500

Now from value to compound:

IC50 (cMET) [nM]	IC50 (RON) [nM]	Compound
500 to 5000	50 to 500	Nc1nccc(Oc2ccc(NC(=O)c3cnn(-c4ccccc4F)c3C(F)(F)F)cc2F)c1Cl [Example 12, N-(4-((2-amino-3-chloropyridin-4-yl)oxy)-3-fluorophenyl)-1-(2-fluorophenyl)-5-(trifluoromethyl)-1H-pyrazole-4-carboxamide]
500 to 5000	50 to 500	CCc1c(C(=O)Nc2ccc(Oc3ccnc(N)c3Cl)c(F)c2)cnn1-c1ccccc1 [Example 5, N-(4-((2-amino-3-chloropyridin-4-yl)oxy)-3-fluorophenyl)-5-ethyl-1-phenyl-1H-pyrazole-4-carboxamide]
500 to 5000	50 to 500	Cc1c(C(=O)Nc2ccc(Oc3ccnc(N)c3Cl)c(F)c2)nnn1-c1ccccc1F [Example 42, N-(4-((2-amino-3-chloropyridin-4-yl)oxy)-3-fluorophenyl)-1-(2-fluorophenyl)-5-methyl-1H-1,2,3-triazole-4-carboxamide]
500 to 5000	500 to 5000	Nc1nccc(Oc2ccc(NC(=O)c3ccn(-c4ccccc4)n3)cc2F)c1Cl [Example 39, N-(4-((2-amino-3-chloropyridin-4-yl)oxy)-3-fluorophenyl)-1-phenyl-1H-pyrazole-3-carboxamide]
500 to 5000	> 5000	Cc1ccc(-n2ncc(C(=O)Nc3ccc(Oc4ccnc(N)c4Cl)c(F)c3)c2C(F)(F)F)cc1 [Example 15, N-(4-((2-amino-3-chloropyridin-4-yl)oxy)-3-fluorophenyl)-1-(p-tolyl)-5-(trifluoromethyl)-1H-pyrazole-4-carboxamide]
50 to 500	50 to 500	Cc1c(C(=O)Nc2ccc(Oc3ccnc(N)c3Cl)c(F)c2)cnn1-c1ccccc1 [Example 3, N-(4-((2-amino-3-chloropyridin-4-yl)oxy)-3-fluorophenyl)-5-methyl-1-phenyl-1H-pyrazole-4-carboxamide]
